Results reported in US12568972B2, “Pyridazinol compounds and derivatives, preparation methods, herbicidal compositions and applications thereof” (Qingdao Kingagroot Chemical Compound Co., Ltd., priority 2018, dated 2026).

Columns and labels:
Experiment in all cases: Post-emergence test, weed control effect
Assay type in all cases: in vivo
Settings in all cases: after 3 weeks
[1] = system: Amaranthus retroflexus
Source text: (§1) The activity level standard of harmful plant destruction (i.e. growth inhibition rate) is as follows: • Level 10: completely dead; • Level 9: above 90% growth inhibition rate; • Level 8: above 80% growth inhibition rate; • Level 7: above 70% growth inhibition rate; • Level 6: above 60% growth inhibition rate; • Level 5: above 50% growth inhibition rate; • Level 4: above 40% growth inhibition rate; • Level 3: above 30% growth inhibition rate; • Level 2: above 20% growth inhibition rate; • Level 1: below 20% growth inhibition rate; • Level 0: no effect.
(§2) The above described growth inhibition rates are fresh weight inhibition rates.
(§3) Experiment of post-emergence test: monocotyledonous and dicotyledonous weed seeds as well as main crop seeds (i.e., wheat, corn, rice, soybean, cotton, oilseed rape, millet and sorghum) were put into a plastic pot loaded with soil, then covered with 0.5-2 cm of soil, and the seeds were allowed to grow in good greenhouse environment. The test plants were treated at 2-3 leaf stage 2-3 weeks after sowing. The test compounds of the invention were dissolved in acetone respectively, then added with Tween-80 and diluted by a certain amount of water to give solutions with certain concentrations, and added with 80% vegetable oil methyl ester synergist at 1500 g/ha. The solution was sprayed to the plants with a sprayer. The plants were cultured for 3 weeks in the greenhouse.

[2] = system: Rorippa indica
Source text: as §1, §2, §3

[3] = system: Chenopodiaceae
Source text: as §1, §2, §3

[4] = system: Veronica polita
Source text: as §1, §2, §3

O=S(=O)(Oc1cc(C(F)(F)F)nnc1-c1cccc(F)c1)c1ccc(Oc2ccccc2)nc1 [Compound 1-146]
weed control effect, Amaranthus retroflexus (activity level) ([1]; Dose 3000 g/ha): 10
weed control effect, Rorippa indica (activity level) ([2]; Dose 3000 g/ha): 10
weed control effect, Chenopodiaceae (activity level) ([3]; Dose 3000 g/ha): 10
weed control effect, Veronica polita (activity level) ([4]; Dose 3000 g/ha): 10

C/C(CC(C)C)=N/Oc1cc(C(F)(F)F)nnc1-c1cccc(C(F)(F)F)c1 [Compound 1-173]
weed control effect, Amaranthus retroflexus (activity level) ([1]; Dose 3000 g/ha): 10
weed control effect, Rorippa indica (activity level) ([2]; Dose 3000 g/ha): 10
weed control effect, Chenopodiaceae (activity level) ([3]; Dose 3000 g/ha): 10
weed control effect, Veronica polita (activity level) ([4]; Dose 3000 g/ha): 10

O=C(Oc1cc(C(F)(F)F)nnc1-c1ccc(F)cc1)N1CCCCC1 [Compound 1-67]
weed control effect, Amaranthus retroflexus (activity level) ([1]; Dose 3000 g/ha): 10
weed control effect, Rorippa indica (activity level) ([2]; Dose 3000 g/ha): 10
weed control effect, Chenopodiaceae (activity level) ([3]; Dose 3000 g/ha): 10
weed control effect, Veronica polita (activity level) ([4]; Dose 3000 g/ha): 10

Oc1cc(C(F)(F)F)nnc1-c1ccc(Cl)cc1Cl [Compound 39]
weed control effect (activity level), Amaranthus retroflexus ([1]; dose 1000 g/ha): 10
weed control effect (activity level), Rorippa indica ([2]; dose 1000 g/ha): 10
weed control effect (activity level), Chenopodiaceae ([3]; dose 1000 g/ha): 10
weed control effect (activity level), Veronica polita ([4]; dose 1000 g/ha): 10

CCCCCCCCSC(=S)Oc1cc(C(F)(F)F)nnc1-c1ccc(F)c(F)c1 [Compound 1-163]
weed control effect, Amaranthus retroflexus (activity level) ([1]; Dose 3000 g/ha): 10
weed control effect, Rorippa indica (activity level) ([2]; Dose 3000 g/ha): 10
weed control effect, Chenopodiaceae (activity level) ([3]; Dose 3000 g/ha): 10
weed control effect, Veronica polita (activity level) ([4]; Dose 3000 g/ha): 10

Oc1cc(C(F)(F)F)nnc1-c1c(F)cccc1Br [Compound 47]
weed control effect (activity level), Amaranthus retroflexus ([1]; dose 1000 g/ha): 10
weed control effect (activity level), Rorippa indica ([2]; dose 1000 g/ha): 10
weed control effect (activity level), Chenopodiaceae ([3]; dose 1000 g/ha): 10
weed control effect (activity level), Veronica polita ([4]; dose 1000 g/ha): 10

COc1ccccc1-c1nnc(C(F)(F)F)cc1O [Compound 94]
weed control effect (activity level), Amaranthus retroflexus ([1]; dose 1000 g/ha): 10
weed control effect (activity level), Rorippa indica ([2]; dose 1000 g/ha): 10
weed control effect (activity level), Chenopodiaceae ([3]; dose 1000 g/ha): 10
weed control effect (activity level), Veronica polita ([4]; dose 1000 g/ha): 10

CCOC(=O)Oc1cc(C(F)(F)F)nnc1-c1ccc(F)c(F)c1 [Compound 1-26]
weed control effect, Amaranthus retroflexus (activity level) ([1]; Dose 3000 g/ha): 10
weed control effect, Rorippa indica (activity level) ([2]; Dose 3000 g/ha): 10
weed control effect, Chenopodiaceae (activity level) ([3]; Dose 3000 g/ha): 10
weed control effect, Veronica polita (activity level) ([4]; Dose 3000 g/ha): 10

CC(C)c1ccc(-c2nnc(C(F)(F)F)cc2O)cc1 [Compound 8]
weed control effect (activity level), Amaranthus retroflexus ([1]; dose 2000 g/ha): 10
weed control effect (activity level), Rorippa indica ([2]; dose 2000 g/ha): 10
weed control effect (activity level), Chenopodiaceae ([3]; dose 2000 g/ha): 8 (Level 8: above 80% growth inhibition rate)
weed control effect (activity level), Veronica polita ([4]; dose 2000 g/ha): 10

Oc1cc(C(F)(F)F)nnc1-c1ccc(Cl)nc1Cl [Compound 991]
weed control effect (activity level), Amaranthus retroflexus ([1]; Dose 3000 g/ha): 10
weed control effect (activity level), Rorippa indica ([2]; Dose 3000 g/ha): 10
weed control effect (activity level), Chenopodiaceae ([3]; Dose 3000 g/ha): 10
weed control effect (activity level), Veronica polita ([4]; Dose 3000 g/ha): 10

Oc1cc(C(F)(F)F)nnc1-c1cccnc1Cl [Compound 205]
weed control effect (activity level), Amaranthus retroflexus ([1]; dose 2000 g/ha): 10
weed control effect (activity level), Rorippa indica ([2]; dose 2000 g/ha): 10
weed control effect (activity level), Chenopodiaceae ([3]; dose 2000 g/ha): 10
weed control effect (activity level), Veronica polita ([4]; dose 2000 g/ha): 10

CSc1cccc(-c2nnc(C(F)(F)F)cc2O)c1 [Compound 95]
weed control effect (activity level), Amaranthus retroflexus ([1]; dose 1000 g/ha): 10
weed control effect (activity level), Rorippa indica ([2]; dose 1000 g/ha): 10
weed control effect (activity level), Chenopodiaceae ([3]; dose 1000 g/ha): 10
weed control effect (activity level), Veronica polita ([4]; dose 1000 g/ha): 10

CCCCCOC(=O)Oc1cc(C(F)(F)F)nnc1-c1ccc(F)c(F)c1 [Compound 1-31]
weed control effect, Amaranthus retroflexus (activity level) ([1]; Dose 3000 g/ha): 10
weed control effect, Rorippa indica (activity level) ([2]; Dose 3000 g/ha): 10
weed control effect, Chenopodiaceae (activity level) ([3]; Dose 3000 g/ha): 10
weed control effect, Veronica polita (activity level) ([4]; Dose 3000 g/ha): 10

CCCCCCCC(=O)Oc1cc(C(F)(F)F)nnc1-c1ccc(F)c(F)c1 [Compound 1-14]
weed control effect, Amaranthus retroflexus (activity level) ([1]; Dose 3000 g/ha): 10
weed control effect, Rorippa indica (activity level) ([2]; Dose 3000 g/ha): 10
weed control effect, Chenopodiaceae (activity level) ([3]; Dose 3000 g/ha): 10
weed control effect, Veronica polita (activity level) ([4]; Dose 3000 g/ha): 10

Oc1cc(C(F)(F)F)nnc1-c1cccc(C(F)(F)F)c1 [Compound 92]
weed control effect (activity level), Amaranthus retroflexus ([1]; dose 1000 g/ha): 10
weed control effect (activity level), Rorippa indica ([2]; dose 1000 g/ha): 10
weed control effect (activity level), Chenopodiaceae ([3]; dose 1000 g/ha): 10
weed control effect (activity level), Veronica polita ([4]; dose 1000 g/ha): 10

Oc1cc(C(F)(F)F)nnc1-c1cncc(F)c1F [Compound 990]
weed control effect (activity level), Amaranthus retroflexus ([1]; Dose 3000 g/ha): 10
weed control effect (activity level), Rorippa indica ([2]; Dose 3000 g/ha): 10
weed control effect (activity level), Chenopodiaceae ([3]; Dose 3000 g/ha): 10
weed control effect (activity level), Veronica polita ([4]; Dose 3000 g/ha): 10

Cc1ncccc1-c1nnc(C(F)(F)F)cc1O [Compound 973]
weed control effect (activity level), Amaranthus retroflexus ([1]; Dose 3000 g/ha): 10
weed control effect (activity level), Rorippa indica ([2]; Dose 3000 g/ha): 10
weed control effect (activity level), Chenopodiaceae ([3]; Dose 3000 g/ha): 10
weed control effect (activity level), Veronica polita ([4]; Dose 3000 g/ha): 10
